Results: the supplement of paper PMC10307832

What was measured:
Test in all cases: relative viability (nuclei count vs DMSO), 5 days (fraction); higher = more cells survive
[1] = test system: A-427
In short: (§1)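 A single step with final 0.05% Triton X-100, 1% formaldehyde and 1 ug/ml Hoechst fixed the cells and stained nuclei 5 days after treatment. Lung cancer cell lines in 1536-well plates had been treated by pin tool the day after seeding with one drug alone or a fixed anchor-drug dose plus five library-drug doses (not always all listed) in √10 steps, and nuclei were counted on 4× images. Relative viability is the ratio of nuclei in treated wells to nuclei in vehicle wells, taken as the median of duplicate plates.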

[2] = test system: CAL-12T
In short: as §1

[3] = test system: COR-L 105
In short: as §1

[4] = test system: EPLC-272H
In short: as §1

[5] = test system: HCC-15
In short: as §1

[6] = test system: LC-2-ad
In short: as §1

[7] = test system: LCLC-97TM1
In short: as §1

[8] = test system: NCI-H1395
In short: as §1

[9] = test system: NCI-H1563
In short: as §1

[10] = test system: NCI-H1734
In short: as §1

[11] = test system: NCI-H1915
In short: as §1

[12] = test system: NCI-H1975
In short: as §1

[13] = test system: NCI-H2023
In short: as §1

[14] = test system: NCI-H2342
In short: as §1

[15] = test system: NCI-H2347
In short: as §1

[16] = test system: NCI-H2405
In short: as §1

[17] = test system: NCI-H520
In short: as §1

[18] = test system: NCI-H838
In short: as §1

[19] = test system: SW 1573
In short: as §1

[20] = test system: SW 900
In short: as §1

[21] = test system: UMC-11
In short: as §1

With Cc1csc(=NC2CCCCC2)n1/N=C/c1ccc(O)c(O)c1O [MIM1] + COc1cc2c(Oc3ccc(NC(=O)C4(C(=O)Nc5ccc(F)cc5)CC4)cc3F)ccnc2cc1OCCCN1CCOCC1 [Foretinib] (partner 0.25 µM) the relative viability ([1]; first compound 0.2 µM) was 1.15, the relative viability ([1]; first compound 2 µM) was 1.05 and the relative viability ([1]; first compound 6.325 µM) was 1.07. The relative viability ([1]; first compound 20 µM) was 0.25, the relative viability ([2]; first compound 0.2 µM) was 1.03 and the relative viability ([2]; first compound 0.6325 µM) was 1.16. For the same molecule, the relative viability ([2]; first compound 2 µM) was 1.2, the relative viability ([2]; first compound 6.325 µM) was 0.68 and the relative viability ([2]; first compound 20 µM) was 0.475. For the same molecule, the relative viability ([3]; first compound 0.2 µM) was 1.02, the relative viability ([3]; first compound 0.6325 µM) was 0.821 and the relative viability ([3]; first compound 2 µM) was 1.19. The relative viability ([3]; first compound 6.325 µM) was 1.08, the relative viability ([3]; first compound 20 µM) was 0.774 and the relative viability ([4]; first compound 0.2 µM) was 0.779. The relative viability ([4]; first compound 0.6325 µM) was 0.724, the relative viability ([4]; first compound 2 µM) was 0.622 and the relative viability ([4]; first compound 6.325 µM) was 0.159. It also gave a relative viability ([4]; first compound 20 µM) of 0.12, a relative viability ([5]; first compound 0.2 µM) of 1.09 and a relative viability ([5]; first compound 2 µM) of 1.06. It also gave a relative viability ([5]; first compound 6.325 µM) of 0.764, a relative viability ([5]; first compound 20 µM) of 0.157 and a relative viability ([6]; first compound 0.2 µM) of 0.896. It also gave a relative viability ([6]; first compound 0.6325 µM) of 0.783, a relative viability ([6]; first compound 2 µM) of 0.745 and a relative viability ([6]; first compound 6.325 µM) of 0.631. The relative viability ([6]; first compound 20 µM) was 0.159, the relative viability ([7]; first compound 0.2 µM) was 0.92 and the relative viability ([7]; first compound 0.6325 µM) was 1.08. For the same molecule, the relative viability ([7]; first compound 2 µM) was 0.888, the relative viability ([7]; first compound 6.325 µM) was 0.611 and the relative viability ([7]; first compound 20 µM) was 0.259. The relative viability ([8]; first compound 0.2 µM) was 1.03, the relative viability ([8]; first compound 0.6325 µM) was 0.975 and the relative viability ([8]; first compound 2 µM) was 0.905. The relative viability ([8]; first compound 6.325 µM) was 0.917, the relative viability ([8]; first compound 20 µM) was 0.388 and the relative viability ([9]; first compound 0.2 µM) was 0.971. It also gave a relative viability ([9]; first compound 0.6325 µM) of 0.975, a relative viability ([9]; first compound 2 µM) of 0.866 and a relative viability ([9]; first compound 6.325 µM) of 0.819. The relative viability ([9]; first compound 20 µM) was 0.772, the relative viability ([10]; first compound 0.2 µM) was 0.884 and the relative viability ([10]; first compound 0.6325 µM) was 0.886. The relative viability ([10]; first compound 2 µM) was 0.772, the relative viability ([10]; first compound 6.325 µM) was 0.478 and the relative viability ([10]; first compound 20 µM) was 0.255. It also gave a relative viability ([11]; first compound 0.2 µM) of 1.13, a relative viability ([11]; first compound 0.6325 µM) of 1.07 and a relative viability ([11]; first compound 2 µM) of 1.07. It also gave a relative viability ([11]; first compound 6.325 µM) of 0.83, a relative viability ([11]; first compound 20 µM) of 0.251 and a relative viability ([12]; first compound 0.2 µM) of 0.905. It also gave a relative viability ([12]; first compound 0.6325 µM) of 0.96, a relative viability ([12]; first compound 2 µM) of 0.837 and a relative viability ([12]; first compound 6.325 µM) of 0.493. The relative viability ([12]; first compound 20 µM) was 0.316, the relative viability ([13]; first compound 0.2 µM) was 0.691 and the relative viability ([13]; first compound 0.6325 µM) was 0.941. For the same molecule, the relative viability ([13]; first compound 2 µM) was 0.7, the relative viability ([13]; first compound 6.325 µM) was 0.599 and the relative viability ([13]; first compound 20 µM) was 0.453. For the same molecule, the relative viability ([14]; first compound 0.2 µM) was 1.25, the relative viability ([14]; first compound 0.6325 µM) was 0.952 and the relative viability ([14]; first compound 2 µM) was 1.07. It also gave a relative viability ([14]; first compound 6.325 µM) of 0.952, a relative viability ([14]; first compound 20 µM) of 1.11 and a relative viability ([15]; first compound 0.2 µM) of 0.953. For the same molecule, the relative viability ([15]; first compound 0.6325 µM) was 0.568, the relative viability ([15]; first compound 2 µM) was 0.567 and the relative viability ([15]; first compound 6.325 µM) was 1.18. The relative viability ([15]; first compound 20 µM) was 0.445, the relative viability ([16]; first compound 0.2 µM) was 1.05 and the relative viability ([16]; first compound 0.6325 µM) was 1.05. It also gave a relative viability ([16]; first compound 2 µM) of 1, a relative viability ([16]; first compound 6.325 µM) of 0.741 and a relative viability ([16]; first compound 20 µM) of 0.866. The relative viability ([17]; first compound 0.2 µM) was 0.635, the relative viability ([17]; first compound 0.6325 µM) was 0.728 and the relative viability ([17]; first compound 2 µM) was 0.587. The relative viability ([17]; first compound 6.325 µM) was 0.646, the relative viability ([17]; first compound 20 µM) was 0.501 and the relative viability ([18]; first compound 0.2 µM) was 1.01. For the same molecule, the relative viability ([18]; first compound 0.6325 µM) was 1.01, the relative viability ([18]; first compound 2 µM) was 0.761 and the relative viability ([18]; first compound 6.325 µM) was 0.853. For the same molecule, the relative viability ([18]; first compound 20 µM) was 0.657, the relative viability ([19]; first compound 0.2 µM) was 1.04 and the relative viability ([19]; first compound 0.6325 µM) was 0.963. It also gave a relative viability ([19]; first compound 2 µM) of 0.809, a relative viability ([19]; first compound 6.325 µM) of 0.871 and a relative viability ([19]; first compound 20 µM) of 0.539. It also gave a relative viability ([20]; first compound 0.2 µM) of 1.17, a relative viability ([20]; first compound 0.6325 µM) of 0.864 and a relative viability ([20]; first compound 2 µM) of 0.854. The relative viability ([20]; first compound 6.325 µM) was 0.917, the relative viability ([20]; first compound 20 µM) was 0.443 and the relative viability ([21]; first compound 0.2 µM) was 1.07. It also gave a relative viability ([21]; first compound 2 µM) of 1.2, a relative viability ([21]; first compound 6.325 µM) of 0.703 and a relative viability ([21]; first compound 20 µM) of 0.335.
